Measurements: US20090298820A1, “3-SUBSTITUTED-1H-PYRROLO[2,3-B]PYRIDINE AND 3-SUBSTITUTED-1H-PYRROLO[3,2-B]PYRIDINE COMPOUNDS, THEIR USE AS MTOR KINASE AND PI3 KINASE INHIBITORS, AND THEIR SYNTHESES” (Wyeth, priority 2008, published 2009)

How the values were obtained:
Assay type in all cases: biochemical
PI3Kγ = PI3Kγ (Homo sapiens, UniProt P48736); assay: PI3K-gamma fluorescence polarization assay; settings: read-out: PI3Kγ Median IC50
mTOR = mTOR (Homo sapiens, UniProt P42345); assay: mTOR enzyme assay (DELFIA format, His6-S6K substrate); settings: read-out: mTOR Kinase Median IC50
PI3Kα = PI3Kα (Homo sapiens, UniProt P42336); assay: PI3K-alpha fluorescence polarization assay; settings: read-out: PI3Kα Median IC50
PI3Kα, sequence (P42336 whole entry, species assumed): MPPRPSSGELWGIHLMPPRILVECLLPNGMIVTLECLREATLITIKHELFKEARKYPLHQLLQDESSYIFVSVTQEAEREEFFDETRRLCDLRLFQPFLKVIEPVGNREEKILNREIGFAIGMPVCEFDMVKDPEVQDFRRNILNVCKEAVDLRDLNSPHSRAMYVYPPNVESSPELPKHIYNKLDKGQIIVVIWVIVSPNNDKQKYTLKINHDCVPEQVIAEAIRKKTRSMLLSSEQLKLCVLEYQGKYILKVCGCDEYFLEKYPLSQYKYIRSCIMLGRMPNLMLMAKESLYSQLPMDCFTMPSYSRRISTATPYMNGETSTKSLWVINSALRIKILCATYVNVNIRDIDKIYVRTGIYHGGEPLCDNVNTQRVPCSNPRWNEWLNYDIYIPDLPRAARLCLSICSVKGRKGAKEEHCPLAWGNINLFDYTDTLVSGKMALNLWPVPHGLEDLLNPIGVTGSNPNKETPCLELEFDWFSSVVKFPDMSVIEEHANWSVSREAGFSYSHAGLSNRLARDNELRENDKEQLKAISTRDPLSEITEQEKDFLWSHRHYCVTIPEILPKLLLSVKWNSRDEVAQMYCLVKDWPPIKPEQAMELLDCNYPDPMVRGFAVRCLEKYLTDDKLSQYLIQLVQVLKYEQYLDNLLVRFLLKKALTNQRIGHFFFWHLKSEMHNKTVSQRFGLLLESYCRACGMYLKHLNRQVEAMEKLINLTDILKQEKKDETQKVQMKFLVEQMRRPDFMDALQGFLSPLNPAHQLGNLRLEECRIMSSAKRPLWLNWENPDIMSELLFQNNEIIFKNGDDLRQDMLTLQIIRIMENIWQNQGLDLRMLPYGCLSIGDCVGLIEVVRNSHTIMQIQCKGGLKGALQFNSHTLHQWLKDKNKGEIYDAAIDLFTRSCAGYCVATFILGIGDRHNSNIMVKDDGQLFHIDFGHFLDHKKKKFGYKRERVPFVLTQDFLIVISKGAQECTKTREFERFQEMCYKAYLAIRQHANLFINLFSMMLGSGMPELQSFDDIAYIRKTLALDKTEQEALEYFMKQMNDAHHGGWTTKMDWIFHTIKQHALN
PI3Kα, sequence (P27986 whole entry partner, species assumed): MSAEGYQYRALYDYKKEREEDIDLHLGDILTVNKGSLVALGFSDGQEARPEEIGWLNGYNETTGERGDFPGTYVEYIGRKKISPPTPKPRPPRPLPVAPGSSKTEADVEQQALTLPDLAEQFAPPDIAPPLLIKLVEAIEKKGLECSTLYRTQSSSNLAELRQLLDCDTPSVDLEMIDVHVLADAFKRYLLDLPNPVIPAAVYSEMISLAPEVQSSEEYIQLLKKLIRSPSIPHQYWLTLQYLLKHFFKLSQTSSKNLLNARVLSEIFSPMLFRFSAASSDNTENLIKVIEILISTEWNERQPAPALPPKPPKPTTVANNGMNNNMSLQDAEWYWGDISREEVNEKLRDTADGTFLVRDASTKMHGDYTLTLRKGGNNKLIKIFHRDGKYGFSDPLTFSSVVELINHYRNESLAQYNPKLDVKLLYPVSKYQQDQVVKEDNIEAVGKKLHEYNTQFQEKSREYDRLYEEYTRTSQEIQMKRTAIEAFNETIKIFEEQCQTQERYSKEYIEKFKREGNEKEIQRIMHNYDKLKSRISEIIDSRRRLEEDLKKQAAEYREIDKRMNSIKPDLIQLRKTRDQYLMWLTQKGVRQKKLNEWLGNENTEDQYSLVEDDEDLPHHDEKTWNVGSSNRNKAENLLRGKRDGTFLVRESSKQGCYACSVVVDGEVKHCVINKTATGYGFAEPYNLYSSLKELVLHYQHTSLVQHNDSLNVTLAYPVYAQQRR

PI3Kγ, sequence (P48736 whole entry, species assumed): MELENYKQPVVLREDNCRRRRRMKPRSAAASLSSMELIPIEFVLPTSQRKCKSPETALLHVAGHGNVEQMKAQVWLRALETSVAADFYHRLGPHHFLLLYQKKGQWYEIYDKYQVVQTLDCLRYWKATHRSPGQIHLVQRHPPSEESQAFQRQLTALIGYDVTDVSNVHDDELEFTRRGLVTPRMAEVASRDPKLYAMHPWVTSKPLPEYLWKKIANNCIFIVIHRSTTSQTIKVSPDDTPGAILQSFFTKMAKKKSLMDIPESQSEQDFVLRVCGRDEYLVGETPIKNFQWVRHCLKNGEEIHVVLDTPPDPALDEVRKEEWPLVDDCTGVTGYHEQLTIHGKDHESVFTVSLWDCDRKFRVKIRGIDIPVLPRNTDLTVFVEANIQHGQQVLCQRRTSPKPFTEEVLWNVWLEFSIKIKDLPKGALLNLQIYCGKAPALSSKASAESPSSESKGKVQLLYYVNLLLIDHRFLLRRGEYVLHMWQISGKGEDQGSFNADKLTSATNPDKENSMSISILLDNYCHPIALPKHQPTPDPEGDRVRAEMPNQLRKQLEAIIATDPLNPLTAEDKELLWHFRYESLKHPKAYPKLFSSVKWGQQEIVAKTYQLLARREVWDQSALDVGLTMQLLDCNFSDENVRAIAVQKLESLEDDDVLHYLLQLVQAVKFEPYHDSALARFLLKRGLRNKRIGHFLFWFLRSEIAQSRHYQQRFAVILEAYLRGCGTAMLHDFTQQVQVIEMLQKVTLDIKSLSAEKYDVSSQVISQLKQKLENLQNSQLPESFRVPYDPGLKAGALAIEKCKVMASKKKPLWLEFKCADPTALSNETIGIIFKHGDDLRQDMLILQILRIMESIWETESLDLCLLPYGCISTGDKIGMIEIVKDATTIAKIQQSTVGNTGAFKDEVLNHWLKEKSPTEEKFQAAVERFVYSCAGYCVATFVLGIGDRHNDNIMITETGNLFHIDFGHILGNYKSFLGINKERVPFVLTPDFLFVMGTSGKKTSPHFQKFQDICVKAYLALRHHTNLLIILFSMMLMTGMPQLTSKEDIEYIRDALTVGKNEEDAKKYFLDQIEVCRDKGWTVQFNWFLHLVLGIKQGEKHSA

SMILES | IC50 (PI3Kγ) | IC50 (mTOR) | IC50 (PI3Kα)
Cn1cc(/C=C2\Oc3ccc(NC(=O)Nc4cccnc4)cc3C2=O)c2c(-c3ccc(C(=O)N4CCOCC4)cc3)ccnc21 [Compound 178, 1-[(2Z)-2-({1-methyl-4-[4-(morpholin-4-ylcarbonyl)phenyl]-1H-pyrrolo[2,3-b]pyridin-3-yl}methylidene)-3-oxo-2,3-dihydro-1-benzofuran-5-yl]-3-pyridin-3-ylurea] | 652 nM | 54.5 nM | 1120 nM
Cn1cc(/C=C2\Oc3cccc(O)c3C2=O)c2c(-c3ccc(S(=O)(=O)N4CCCCC4)cc3)ccnc21 [Compound 181, (2Z)-4-hydroxy-2-({1-methyl-4-[4-(piperidin-1-ylsulfonyl)phenyl]-1H-pyrrolo[2,3-b]pyridin-3-yl}methylidene)-1-benzofuran-3(2H)-one] | 1210 nM | 58 nM | 123 nM
Cn1cc(/C=C2\Oc3ccc(NC(=O)Nc4cccnc4)cc3C2=O)c2c(-c3ccccc3)ccnc21 [Compound 183, 1-{(2Z)-2-[(1-methyl-4-phenyl-1H-pyrrolo[2,3-b]pyridin-3-yl)methylidene]-3-oxo-2,3-dihydro-1-benzofuran-5-yl}-3-pyridin-3-ylurea] | 479 nM | 755 nM | 367 nM
CN1CCN(c2ccnc3c2c(/C=C2\Oc4ccc(NC(=O)Nc5cccnc5)cc4C2=O)cn3C)CC1 [Compound 184, 1-[(2Z)-2-{[1-methyl-4-(4-methylpiperazin-1-yl)-1H-pyrrolo[2,3-b]pyridin-3-yl]methylidene}-3-oxo-2,3-dihydro-1-benzofuran-5-yl]-3-pyridin-3-ylurea] | 484 nM | 83 nM | 632 nM
Cn1cc(/C=C2\Oc3cccc(O)c3C2=O)c2c(-c3ccc(S(=O)(=O)N4CCCC4)cc3)ccnc21 [Compound 190, (2Z)-4-hydroxy-2-({1-methyl-4-[4-(pyrrolidin-1-ylsulfonyl)phenyl]-1H-pyrrolo[2,3-b]pyridin-3-yl}methylidene)-1-benzofuran-3(2H)-one] | 80 nM | 3.5 nM | 26 nM
CONC(=O)c1ccc(-c2ccnc3c2c(/C=C2\Oc4cccc(O)c4C2=O)cn3C)cc1 [Compound 192, 4-{3-[(Z)-(4-hydroxy-3-oxo-1-benzofuran-2(3H)-ylidene)methyl]-1-methyl-1H-pyrrolo[2,3-b]pyridin-4-yl}-N-methoxybenzamide] | 39 nM | 1 nM | 26 nM
COCCCNC(=O)C1CCN(c2ccnc3c2c(C=C2Oc4ccc(NC(=O)Nc5cccnc5)cc4C2=O)cn3C)CC1 [Compound 200, N-(3-methoxypropyl)-1-[1-methyl-3-({3-oxo-5-[(pyridin-3-ylcarbamoyl)amino]-1-benzofuran-2(3H)-ylidene}methyl)-1H-pyrrolo[2,3-b]pyridin-4-yl]piperidine-4-carboxamide] | > 10000 nM | 4.8 nM | > 10000 nM
Cn1cc(C=C2Oc3ccc(NC(=O)Nc4cccnc4)cc3C2=O)c2c(N3CCC(C(=O)NCC(N)=O)CC3)ccnc21 [Compound 202, N-(2-amino-2-oxoethyl)-1-[1-methyl-3-({3-oxo-5-[(pyridin-3-ylcarbamoyl)amino]-1-benzofuran-2(3H)-ylidene}methyl)-1H-pyrrolo[2,3-b]pyridin-4-yl]piperidine-4-carboxamide] | > 10000 nM | 4 nM | 5900 nM
Cn1cc(C=C2Oc3ccc(NC(=O)Nc4cccnc4)cc3C2=O)c2c(N3CCC(C(=O)NCCN4CCCC4)CC3)ccnc21 [Compound 203, 1-[1-methyl-3-({3-oxo-5-[(pyridin-3-ylcarbamoyl)amino]-1-benzofuran-2(3H)-ylidene}methyl)-1H-pyrrolo[2,3-b]pyridin-4-yl]-N-(2-pyrrolidin-1-ylethyl)piperidine-4-carboxamide] | > 10000 nM | 19 nM | > 10000 nM
Cn1cc(C=C2Oc3ccc(NC(=O)Nc4cccnc4)cc3C2=O)c2c(N3CCC(C(=O)N[C@H]4CCNC4)CC3)ccnc21 [Compound 209, 1-[1-methyl-3-({3-oxo-5-[(pyridin-3-ylcarbamoyl)amino]-1-benzofuran-2(3H)-ylidene}methyl)-1H-pyrrolo[2,3-b]pyridin-4-yl]-N-[(3S)-pyrrolidin-3-yl]piperidine-4-carboxamide] | 4160 nM | 26.5 nM | > 10000 nM

Other lines, results leading:

IC50 (PI3Kγ) | IC50 (mTOR) | IC50 (PI3Kα) | SMILES
578 nM | 15 nM | 249 nM | CNC(=O)Nc1ccc2c(c1)C(=O)/C(=C/c1cn(C)c3nccc(-c4ccc(C(=O)N5CCOCC5)cc4)c13)O2 [Compound 179, 1-methyl-3-[(2Z)-2-({1-methyl-4-[4-(morpholin-4-ylcarbonyl)phenyl]-1H-pyrrolo[2,3-b]pyridin-3-yl}methylidene)-3-oxo-2,3-dihydro-1-benzofuran-5-yl]urea]
348 nM | 71 nM | 275 nM | Cn1cc(/C=C2\Oc3ccc(NC(=O)Nc4cccnc4)cc3C2=O)c2c(N3CCOCC3)ccnc21 [Compound 185, 1-{(2Z)-2-[(1-methyl-4-morpholin-4-yl-1H-pyrrolo[2,3-b]pyridin-3-yl)methylidene]-3-oxo-2,3-dihydro-1-benzofuran-5-yl}-3-pyridin-3-ylurea]
550 nM | 4.6 nM | 445 nM | CCn1cc(/C=C2\Oc3cccc(O)c3C2=O)c2c(-c3ccc(C(=O)N4CCN(CCO)CC4)cc3)ccnc21 [Compound 186, (2Z)-2-{[1-ethyl-4-(4-{[4-(2-hydroxyethyl)piperazin-1-yl]carbonyl}phenyl)-1H-pyrrolo[2,3-b]pyridin-3-yl]methylidene}-4-hydroxy-1-benzofuran-3(2H)-one]
101 nM | 3 nM | 34 nM | Cn1cc(/C=C2\Oc3cccc(O)c3C2=O)c2c(-c3ccc(S(=O)(=O)N4CCOCC4)cc3)ccnc21 [Compound 191, (2Z)-4-hydroxy-2-({1-methyl-4-[4-(morpholin-4-ylsulfonyl)phenyl]-1H-pyrrolo[2,3-b]pyridin-3-yl}methylidene)-1-benzofuran-3(2H)-one]
234 nM | 4.3 nM | 140 nM | CN(CCO)C(=O)c1ccc(-c2ccnc3c2c(/C=C2\Oc4cccc(O)c4C2=O)cn3C)cc1 [Compound 195, N-(2-hydroxyethyl)-4-{3-[(Z)-(4-hydroxy-3-oxo-1-benzofuran-2(3H)-ylidene)methyl]-1-methyl-1H-pyrrolo[2,3-b]pyridin-4-yl}-N-methylbenzamide]
66 nM | 1 nM | 41 nM | CON(C)C(=O)c1ccc(-c2ccnc3c2c(/C=C2\Oc4cccc(O)c4C2=O)cn3C)cc1 [Compound 196, 4-{3-[(Z)-(4-hydroxy-3-oxo-1-benzofuran-2(3H)-ylidene)methyl]-1-methyl-1H-pyrrolo[2,3-b]pyridin-4-yl}-N-methoxy-N-methylbenzamide]
2990 nM | 12.5 nM | 2240 nM | COCCCN(C)C(=O)C1CCN(c2ccnc3c2c(C=C2Oc4ccc(NC(=O)Nc5cccnc5)cc4C2=O)cn3C)CC1 [Compound 199, N-(3-methoxypropyl)-N-methyl-1-[1-methyl-3-({3-oxo-5-[(pyridin-3-ylcarbamoyl)amino]-1-benzofuran-2(3H)-ylidene}methyl)-1H-pyrrolo[2,3-b]pyridin-4-yl]piperidine-4-carboxamide]
1730 nM | 10 nM | 5620 nM | Cn1cc(C=C2Oc3ccc(NC(=O)Nc4cccnc4)cc3C2=O)c2c(N3CCC(C(=O)N4CC=CC4)CC3)ccnc21 [Compound 204, 1-[2-({4-[4-(2,5-dihydro-1H-pyrrol-1-ylcarbonyl)piperidin-1-yl]-1-methyl-1H-pyrrolo[2,3-b]pyridin-3-yl}methylidene)-3-oxo-2,3-dihydro-1-benzofuran-5-yl]-3-pyridin-3-ylurea]
9230 nM | 49 nM | > 10000 nM | CN1CCC(N(C)C(=O)C2CCN(c3ccnc4c3c(C=C3Oc5ccc(NC(=O)Nc6cccnc6)cc5C3=O)cn4C)CC2)C1 (stereo not drawn) [Compound 205, N-methyl-1-[1-methyl-3-({3-oxo-5-[(pyridin-3-ylcarbamoyl)amino]-1-benzofuran-2(3H)-ylidene}methyl)-1H-pyrrolo[2,3-b]pyridin-4-yl]-N-(1-methylpyrrolidin-3-yl)piperidine-4-carboxamide]
> 10000 nM | 47 nM | > 10000 nM | CN(C(=O)C1CCN(c2ccnc3c2c(C=C2Oc4ccc(NC(=O)Nc5cccnc5)cc4C2=O)cn3C)CC1)[C@@H]1CCNC1 [Compound 206, N-methyl-1-[1-methyl-3-({3-oxo-5-[(pyridin-3-ylcarbamoyl)amino]-1-benzofuran-2(3H)-ylidene}methyl)-1H-pyrrolo[2,3-b]pyridin-4-yl]-N-[(3R)-pyrrolidin-3-yl]piperidine-4-carboxamide]
4290 nM | 16 nM | ≥ 10000 nM | Cn1cc(C=C2Oc3ccc(NC(=O)Nc4cccnc4)cc3C2=O)c2c(N3CCC(C(=O)N[C@@H]4CCNC4)CC3)ccnc21 [Compound 207, 1-[1-methyl-3-({3-oxo-5-[(pyridin-3-ylcarbamoyl)amino]-1-benzofuran-2(3H)-ylidene}methyl)-1H-pyrrolo[2,3-b]pyridin-4-yl]-N-[(3R)-pyrrolidin-3-yl]piperidine-4-carboxamide]
> 10000 nM | 50 nM | > 10000 nM | CN(C(=O)C1CCN(c2ccnc3c2c(C=C2Oc4ccc(NC(=O)Nc5cccnc5)cc4C2=O)cn3C)CC1)[C@H]1CCNC1 [Compound 208, N-methyl-1-[1-methyl-3-({3-oxo-5-[(pyridin-3-ylcarbamoyl)amino]-1-benzofuran-2(3H)-ylidene}methyl)-H-pyrrolo[2,3-b]pyridin-4-yl]-N-[(3S)-pyrrolidin-3-yl]piperidine-4-carboxamide]
